In patent US20200407398A1, “Short Proline-Rich Lipopeptide Potentiates Minocycline and Rifampicin Against Multidrug-and Extensively Drug-Resistant Pseudomonas Aeruginosa” (priority 2018, published 2020):
Square brackets hold non-standard residues; d marks the D form. Peptide text beside a SMILES is read from it. * marks the point of attachment. Lauroyl = CCCCCCCCCCCC(=O)*

How the values were obtained:
[1] = system: P. aeruginosa 101243 (colistin-resistant, MDR/XDR); test: microbe, parasite or virus in culture
Description: (§1) We evaluated the activity of SPRLPs in combination with fifteen clinically-used antibiotics against P. aeruginosa. Antibiotics tested included fluoroquinolones (moxifloxacin, ciprofloxacin and levofloxacin), aminoglycosides (gentamicin, tobramycin and amikacin), cephalosporins (ceftazidime and cefotaxime), carbapenems (meropenem and doripenem), aztreonam, rifampicin, minocycline, colistin and fosfomycin. The SPRLPs were screened initially at a fixed concentration of 8 μg/mL (5 μM) in combination with antibiotics against wild-type P. aeruginosa PAO1. We assessed potentiation by at least a four-fold absolute MIC reduction of the antibiotic, after which synergism was further validated by a conventional checkerboard assay. A fractional inhibitory concentration (FIC) index of ≤0.5, 0.5<x≤4 or >4 was interpreted as synergistic, indifferent or antagonistic interaction, respectively (31). FIC index was obtained by adding the FIC values of the antibiotic and the SPRLP adjuvant. FIC of antibiotics was calculated by dividing the MIC of the antibiotic in the presence of the adjuvant by the MIC of the antibiotic alone. Similarly, the FIC of adjuvant was calculated via dividing the MIC of the adjuvant in the presence of the antibiotic by the MIC of the adjuvant alone.
(§2) Isolates used in this study were either obtained from the American Type Culture Collection (ATCC), the Canadian National Intensive Care Unit (CAN-ICU) surveillance study (27) or the Canadian Ward Surveillance (CANWARD) study (28). Clinical isolates belonging to the CAN-ICU and CANWARD studies were recovered from patients suffering a presumed infectious disease entering or admitted in a participating medical center across Canada during the time of study. MDR P. aeruginosa strains in this study refer to those that are resistant to aminoglycosides, fluoroquinolones, cephalosporins, and carbapenems while XDR strains are those that are resistant to aminoglycosides, fluoroquinolones, cephalosporins, carbapenems, aztreonam and penicillin+β-lactamase inhibitor combination (39, 40).
(§3) Microbroth dilution susceptibility test following the Clinical and Laboratory Standards Institute (CLSI) guidelines (32) was performed to assess the in vitro antibacterial activity of SPRLPs. Overnight grown bacterial cultures were diluted in saline to achieve a 0.5 McFarland turbidity, followed by 1:50 dilution in Mueller-Hinton broth (MHB) for inoculation to a final concentration of 5×10^5 colony forming units/mL. The assay was done on a 96-well plate to which the agents of interest were 2-fold serially diluted in MHB and incubated with equal volumes of inoculum at 37° C. for 18 hours. MIC was determined as the lowest concentration to inhibit visible bacterial growth in form of turbidity, which was confirmed using EMax Plus microplate reader (Molecular Devices, USA) at a wavelength of 590 nm. The well containing MHB broth with or without bacterial cells was used as positive or negative control, respectively.
(§4) The assay was performed on a 96-well plate, to which the agents of interest was 2-fold serially diluted in working MHB. Prior to serial dilution, SPRLP was added to the working MHB media so that a fixed final concentration of 8 μg/mL (5 μM) SPRLP per well was achieved. To ensure that the assay was working, the MIC determination test of the studied antibiotic (without SPRLP) was included on the same plate. Similar MIC results between the assay comparator and an independent MIC determination test (on a different plate) ensured validity of the synergy test. Overnight grown bacterial cultures were diluted in saline to 0.5 McFarland turbidity, followed by 1:50 dilution in MHB (without SPRLP) and inoculation into each well to a final concentration of approximately 5×10^5 colony forming units/mL. Wells containing only MHB (without SPRLP) with or without bacterial cells were used as positive or negative control, respectively.

[2] = system: P. aeruginosa 259-96918 (MDR/XDR); test: microbe, parasite or virus in culture; conditions: P. aeruginosa 259-96918; for MIC (agent alone): antibiotic or lipopeptide alone
Description: as §1, §2, §3, §4

[3] = system: P. aeruginosa 262-101856 (MDR/XDR); test: microbe, parasite or virus in culture; conditions: P. aeruginosa 262-101856; for Absolute MIC MIN: MIC of minocycline in the presence of 8 μg/mL (5 μM) lipopeptide; for MIC (agent alone): antibiotic or lipopeptide alone
Description: as §1, §2, §3, §4

[4] = system: P. aeruginosa 91433 (colistin-resistant, MDR/XDR); test: microbe, parasite or virus in culture; conditions: P. aeruginosa 91433 (colistin-resistant); for MIC (agent alone): antibiotic or lipopeptide alone
Description: as §1, §2, §3, §4

[5] = system: A. baumannii CAN-ICU 63169; format: cell-based
In short: (§5)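 MICs were determined by CLSI broth microdilution in Mueller-Hinton broth, using 2-fold serial dilutions and an inoculum of 5×10^5 CFU/mL. Plates were incubated 18 hours at 37° C. The MIC was the lowest concentration preventing visible turbidity, confirmed by absorbance at 590 nm.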

[6] = system: E. coli CAN-ICU 61714 (gentamicin-resistant); format: cell-based
In short: as §5

[7] = system: E. coli CAN-ICU 63074 (amikacin-intermediate resistant); format: cell-based
In short: as §5

[8] = system: E. coli CANWARD-2011 97615 (gentamicin-, tobramycin-, ciprofloxacin-resistant) aac(3′)iia; format: cell-based
In short: as §5

[9] = system: P. aeruginosa ATCC 27853; format: cell-based
In short: as §5

[10] = system: P. aeruginosa CAN-ICU 62308 (gentamicin-resistant); format: cell-based
In short: as §5

[11] = system: S. aureus ATCC 29213; format: cell-based
In short: as §5

[12] = system: S. maltophilia CAN-ICU 62584; format: cell-based
In short: as §5

[13] = system: methicillin-resistant S. aureus ATCC 33592; format: cell-based
In short: as §5

[14] = system: methicillin-resistant S. epidermidis CAN-ICU 61589 (ceftazidime-resistant); format: cell-based; conditions: methicillin-resistant CAN-ICU 61589 (ceftazidime-resistant)
In short: as §5

[15] = system: methicillin-susceptible Staphylococcus epidermidis CANWARD-2008 81388; format: cell-based; conditions: methicillin-susceptible CANWARD-2008 81388
In short: as §5

[16] = P. aeruginosa 101243 (colistin-resistant), degree of minocycline potentiation in the presence of 8 μg/mL (5 μM) lipopeptide
[17] = P. aeruginosa 101243 (colistin-resistant), degree of rifampicin potentiation in the presence of 8 μg/mL (5 μM) lipopeptide
[18] = MIC of minocycline in the presence of 8 μg/mL (5 μM) lipopeptide
[19] = MIC of rifampicin in the presence of 8 μg/mL (5 μM) lipopeptide
[20] = degree of minocycline potentiation in the presence of 8 μg/mL (5 μM) lipopeptide
[21] = degree of rifampicin potentiation in the presence of 8 μg/mL (5 μM) lipopeptide

Row | Compound | Potentiation [1, 16] | Potentiation [1, 17] | MIC (agent alone) [2] | Potentiation [2, 20] | Potentiation [2, 21] | Absolute MIC MIN [3] | MIC (agent alone) [3] | Potentiation [3, 20] | Potentiation [3, 21] | MIC (agent alone) [4] | Potentiation [4, 20] | Potentiation [4, 21] | further results
1 | CCCCCCCCCCCC(=O)N1CCC[C@@H]1C(=O)N[C@H](CCCNC(=N)N)C(=O)N1CCC[C@@H]1C(=O)N[C@H](CCCNC(=N)N)C(=O)N1CCC[C@@H]1C(=O)N[C@H](CCCNC(=N)N)C(=O)N1CCC[C@@H]1C(N)=O [C12-prp] (Lauroyl-[dP][dR][dP][dR][dP][dR][dP]-NH2) | 2-fold | 8-fold | >128 µg/mL | 4-fold | 8-fold | 16 µg/mL | >128 µg/mL | 4-fold | 2-fold | >128 µg/mL | 8-fold | 8-fold | Absolute MIC MIN ([1]; P. aeruginosa 101243 (colistin-resistant), MIC of minocycline in the presence of 8 μg/mL (5 μM) lipopeptide): 2 µg/mL; Absolute MIC RMP ([1]; P. aeruginosa 101243 (colistin-resistant), MIC of rifampicin in the presence of 8 μg/mL (5 μM) lipopeptide): 0.5 µg/mL; MIC (agent alone) ([1]; P. aeruginosa 101243 (colistin-resistant), antibiotic or lipopeptide alone): >128 µg/mL; Absolute MIC MIN [2, 18]: 4 µg/mL; Absolute MIC RMP [2, 19]: 2 µg/mL; Absolute MIC RMP [3, 19]: 256 µg/mL; Absolute MIC MIN [4, 18]: 4 µg/mL; Absolute MIC RMP [4, 19]: 2 µg/mL
2 | CCCCCCCCCCCC(=O)N1CCC[C@H]1C(=O)N[C@@H](CCCNC(=N)N)C(=O)N1CCC[C@H]1C(=O)N[C@@H](CCCNC(=N)N)C(=O)N1CCC[C@H]1C(=O)N[C@@H](CCCNC(=N)N)C(=O)N1CCC[C@H]1C(N)=O [Compound C12-PRP, CH3(CH2)10CO-PRPRPRP-NH2] (Lauroyl-PRPRPRP-NH2) | 4-fold | 32-fold | >128 µg/mL | 8-fold | 8-fold | 16 µg/mL | >128 µg/mL | 4-fold | none | >128 µg/mL | 4-fold | 16-fold | MIC [5]: >128 µg/mL; MIC [6]: >128 µg/mL; MIC [7]: >128 µg/mL; MIC [8]: >128 µg/mL; MIC [9]: >128 µg/mL; MIC [10]: >128 µg/mL; MIC [11]: 128 µg/mL; MIC [12]: >128 µg/mL; MIC [13]: >128 µg/mL; MIC [14]: 128 µg/mL; MIC [15]: 32 µg/mL; MIC (agent alone) ([1]; 101243 (colistin-resistant, MDR/XDR)): 128 µg/mL; FIC index ([1]; P. aeruginosa 101243 (colistin-resistant), lipopeptide in combination with minocycline (MIN)): 0.31; FIC index ([1]; P. aeruginosa 101243 (colistin-resistant), lipopeptide in combination with rifampicin (RMP)): 0.09
